Test results taken from patent US20160022769A1, “COMPOSTIONS AND METHODS FOR TREATING RETINAL DISEASE” (RETINAL SOLUTIONS LLC, priority 2013, published 2016).

How the values were obtained:
[1] = target: T1, Frizzled receptor subtype 4 (Fz4) (Homo sapiens, UniProt Q9ULV1); conditions: literature (Xu 2004 and others); cited from earlier work
T1 sequence (Q9ULV1 37-537): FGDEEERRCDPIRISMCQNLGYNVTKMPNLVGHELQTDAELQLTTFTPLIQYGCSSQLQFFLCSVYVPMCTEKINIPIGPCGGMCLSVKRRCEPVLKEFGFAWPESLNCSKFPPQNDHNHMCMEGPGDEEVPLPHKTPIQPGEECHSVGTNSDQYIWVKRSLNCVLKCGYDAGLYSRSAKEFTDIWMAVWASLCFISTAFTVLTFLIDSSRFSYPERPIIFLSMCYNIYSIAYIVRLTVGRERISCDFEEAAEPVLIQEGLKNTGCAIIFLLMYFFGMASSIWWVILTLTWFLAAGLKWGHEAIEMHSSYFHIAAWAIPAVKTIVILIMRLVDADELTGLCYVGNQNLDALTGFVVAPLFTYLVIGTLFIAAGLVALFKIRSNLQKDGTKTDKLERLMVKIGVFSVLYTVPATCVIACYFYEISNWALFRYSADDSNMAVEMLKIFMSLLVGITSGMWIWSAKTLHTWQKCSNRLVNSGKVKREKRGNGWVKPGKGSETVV

[2] = test system: posterior capillary dropout in the retina; test: oxygen-induced retinopathy (OIR) mouse model, fluorescein angiography of retinal capillary dropout; assay type: in vivo
Description: FIG. 2 is a montage of fluorescein angiograms depicting a retinal phenotype as observed in an OIR mouse, which highlights large areas of posterior capillary dropout in the retina.
Capillary drop out is a very serious problem for many retinal vascular diseases. […] See Trese, M. T. et al., Retinal Physician, April 2011.

In the case of “Norrin: 131 amino acid secreted protein (NCBI NP_000257.1), ligand of Frizzled-4 that activates Wnt signaling”, the “affinity for Fz4” value [1] is listed as “nanomolar affinity”, the “retinal phenotype on fluorescein angiogram” value ([2]; OIR mouse, intravitreal injection, FIG. 4) is listed as “posterior capillary sparing” and the capillary dropout ([2]; murine capillary dropout model, norrin treatment (FIG. 4 vs FIGS. 1-3)) is listed as “reduced or eliminated”.
